Measurements reported in ChEMBL document CHEMBL1201862, “PubChem BioAssay data set” (2004).
Structures can show the parent of a compound that is named as a salt.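 How tested: cells in 96-well plates exposed to compound for 48 hours at five concentrations. At the GI50, growth is halved.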 Activity calls are given as the source filed them. No stated cut-off is given here; in the data, active = GI50 up to about 1.1 µM and inactive = higher. Where a SMILES comes first, the peptide text is derived from it. [ ]: non-standard residue; d: D form. The star is where a group is joined. ξ: configuration not given here. Propanoyl(3-(4-MeO-Ph)) = COc1ccc(CCC(=O)*)cc1; Thr(3ξ) = CC(O)[C@H](N)C(=O)O; dNMeL = CN[C@H](CC(C)C)C(=O)O; OBn = c1ccc(CO*)cc1; ξLac = CC(O)C(=O)O

Assays:
Experiment in all cases: NCI tumour cell line growth inhibition, 48 h
NCI-H522 = test system: NCI-H522
SK-MEL-2 = test system: SK-MEL-2
MOLT-4 = test system: MOLT-4
UO-31 = test system: UO-31
HCT-116 = test system: HCT-116
A498 = test system: A498
M19-MEL = test system: M19-MEL
DLD-1 = test system: DLD-1
CCRF-CEM = test system: CCRF-CEM
ACHN = test system: ACHN
Malme-3M = test system: Malme-3M
HL-60 = test system: HL-60
KM12 = test system: KM12
SNB-78 = test system: SNB-78
DMS-114 = test system: DMS-114
UACC-257 = test system: UACC-257
NCI-H226 = test system: NCI-H226
LXFL 529 = test system: LXFL 529
SF-268 = test system: SF-268
SW-620 = test system: SW-620
U-251 = test system: U-251
NCI-H460 = test system: NCI-H460
DMS-273 = test system: DMS-273
SK-MEL-28 = test system: SK-MEL-28
KM-20L2 = test system: KM-20L2
786-0 = test system: 786-0
RXF 393 = test system: RXF 393
UACC-62 = test system: UACC-62
HCT-15 = test system: HCT-15
HCC 2998 = test system: HCC 2998
SN12C = test system: SN12C
NCI-H23 = test system: NCI-H23
SR = test system: SR
OVCAR-8 = test system: OVCAR-8
HT-29 = test system: HT-29
OVCAR-5 = test system: OVCAR-5
SK-OV-3 = test system: SK-OV-3
HOP-62 = test system: HOP-62
SNB-19 = test system: SNB-19
IGROV-1 = test system: IGROV-1
COLO 205 = test system: COLO 205
SNB-75 = test system: SNB-75
RPMI-8226 = test system: RPMI-8226
EKVX = test system: EKVX
TK-10 = test system: TK-10
SF-295 = test system: SF-295
A549 = test system: A549
OVCAR-4 = test system: OVCAR-4
K562 = test system: K562
M14 = test system: M14
SF-539 = test system: SF-539
OVCAR-3 = test system: OVCAR-3
PC-3 = test system: PC-3
T47D = test system: T47D
DU-145 = test system: DU-145
MCF7 = test system: MCF7
MDA-MB-435 = test system: MDA-MB-435
MDA-MB-231 = test system: MDA-MB-231
MDA-N = test system: MDA-N
NCI/ADR-RES = test system: NCI/ADR-RES
CAKI-1 = test system: CAKI-1
BT-549 = test system: BT-549
LOX IMVI = test system: LOX IMVI
Hs-578T = test system: Hs-578T
SK-MEL-5 = test system: SK-MEL-5
HOP-92 = test system: HOP-92

With `CC(C)=CC(=O)CC(=O)C(=O)Nc1ccc(Cl)c(Cl)c1` the GI50 (NCI-H522) was > 100 µM (inactive), the GI50 (SK-MEL-2) was > 100 µM (inactive) and the GI50 (MOLT-4) was > 100 µM (inactive). The GI50 (UO-31) was > 100 µM (inactive), the GI50 (HCT-116) was > 100 µM (inactive) and the GI50 (A498) was > 100 µM (inactive). The GI50 (M19-MEL) was > 100 µM (inactive), the GI50 (DLD-1) was > 100 µM (inactive) and the GI50 (CCRF-CEM) was > 100 µM (inactive). The GI50 (ACHN) was > 100 µM (inactive), the GI50 (Malme-3M) was > 100 µM (inactive) and the GI50 (HL-60) was > 100 µM (inactive). For the same molecule, the GI50 (KM12) was > 100 µM (inactive), the GI50 (SNB-78) was > 100 µM (inactive) and the GI50 (DMS-114) was > 100 µM (inactive). The GI50 (UACC-257) was > 100 µM (inactive), the GI50 (NCI-H226) was > 100 µM (inactive) and the GI50 (LXFL 529) was > 100 µM (inactive). The GI50 (SF-268) was > 100 µM (inactive), the GI50 (SW-620) was > 100 µM (inactive) and the GI50 (U-251) was > 100 µM (inactive). The GI50 (NCI-H460) was > 100 µM (inactive), the GI50 (DMS-273) was > 100 µM (inactive) and the GI50 (SK-MEL-28) was > 100 µM (inactive). For the same molecule, the GI50 (KM-20L2) was > 100 µM (inactive), the GI50 (786-0) was > 100 µM (inactive) and the GI50 (RXF 393) was > 100 µM (inactive). The GI50 (UACC-62) was > 100 µM (inactive), the GI50 (HCT-15) was greater than 100 µM and the GI50 (HCC 2998) was > 100 µM (inactive). For the same molecule, the GI50 (SN12C) was > 100 µM (inactive), the GI50 (NCI-H23) was > 100 µM (inactive) and the GI50 (SR) was > 100 µM (inactive). For the same molecule, the GI50 (OVCAR-8) was > 100 µM (inactive), the GI50 (HT-29) was > 100 µM (inactive) and the GI50 (OVCAR-5) was > 100 µM (inactive). For the same molecule, the GI50 (SK-OV-3) was > 100 µM (inactive), the GI50 (HOP-62) was > 100 µM (inactive) and the GI50 (SNB-19) was > 100 µM (inactive). For the same molecule, the GI50 (IGROV-1) was > 100 µM (inactive), the GI50 (COLO 205) was > 100 µM (inactive) and the GI50 (SNB-75) was > 100 µM (inactive). For the same molecule, the GI50 (RPMI-8226) was > 100 µM (inactive), the GI50 (EKVX) was > 100 µM (inactive) and the GI50 (TK-10) was > 100 µM (inactive). The GI50 (SF-295) was > 100 µM (inactive), the GI50 (A549) was > 100 µM (inactive) and the GI50 (OVCAR-4) was > 100 µM (inactive). The GI50 (K562) was > 100 µM (inactive), the GI50 (M14) was > 100 µM (inactive) and the GI50 (SF-539) was > 100 µM (inactive). The GI50 (OVCAR-3) was > 100 µM (inactive).

For `COc1ccc(CCC(=O)OC(C)[C@H](NC(=O)[C@@H](CC(C)C)N(C)C(=O)[C@@H]2CCCN2C(=O)C(C)O)C(=O)OCc2ccccc2)cc1` (some centres not stated) (H-[ξLac]P[dNMeL][Thr(3ξ)](Propanoyl(3-(4-MeO-Ph)))-OBn), the GI50 (NCI-H522) was 24.3 µM (inactive), the GI50 (SK-MEL-2) was 16.7 µM (inactive) and the GI50 (MOLT-4) was 24.3 µM (inactive). For the same molecule, the GI50 (PC-3) was 30.5 µM (inactive), the GI50 (UO-31) was 40.5 µM (inactive) and the GI50 (HCT-116) was 43.7 µM (inactive). For the same molecule, the GI50 (T47D) was 33.6 µM (inactive), the GI50 (A498) was 28.7 µM (inactive) and the GI50 (DU-145) was 62.5 µM (inactive). For the same molecule, the GI50 (CCRF-CEM) was 26.9 µM (inactive), the GI50 (ACHN) was 41.6 µM (inactive) and the GI50 (Malme-3M) was 20.8 µM (inactive). The GI50 (HL-60) was 28.2 µM (inactive), the GI50 (KM12) was 27.9 µM (inactive) and the GI50 (UACC-257) was 18.4 µM (inactive). The GI50 (NCI-H226) was 30.4 µM (inactive), the GI50 (SF-268) was 31.5 µM (inactive) and the GI50 (SW-620) was 32.3 µM (inactive). The GI50 (MCF7) was 38.1 µM (inactive), the GI50 (U-251) was 26.5 µM (inactive) and the GI50 (NCI-H460) was 64.4 µM (inactive). For the same molecule, the GI50 (MDA-MB-435) was 21.8 µM (inactive), the GI50 (SK-MEL-28) was 17.8 µM (inactive) and the GI50 (786-0) was 35.2 µM (inactive). The GI50 (RXF 393) was 22.1 µM (inactive), the GI50 (MDA-MB-231) was 19.3 µM (inactive) and the GI50 (UACC-62) was 19.2 µM (inactive). The GI50 (HCT-15) was 32.3 µM, the GI50 (HCC 2998) was 40.4 µM (inactive) and the GI50 (SN12C) was 34.9 µM (inactive). The GI50 (NCI-H23) was 41.4 µM (inactive), the GI50 (SR) was 34.4 µM (inactive) and the GI50 (OVCAR-8) was 96.2 µM (inactive). For the same molecule, the GI50 (MDA-N) was 32.4 µM (inactive), the GI50 (HT-29) was 36.5 µM (inactive) and the GI50 (NCI/ADR-RES) was 27.5 µM (inactive). The GI50 (OVCAR-5) was > 100 µM (inactive), the GI50 (SK-OV-3) was 84.1 µM (inactive) and the GI50 (HOP-62) was 99.8 µM (inactive). The GI50 (CAKI-1) was > 100 µM (inactive), the GI50 (SNB-19) was 66.2 µM (inactive) and the GI50 (BT-549) was 43.6 µM (inactive). For the same molecule, the GI50 (IGROV-1) was 30.5 µM (inactive), the GI50 (COLO 205) was 19.5 µM (inactive) and the GI50 (SNB-75) was 19.9 µM (inactive). The GI50 (RPMI-8226) was 28.7 µM (inactive), the GI50 (LOX IMVI) was 17.9 µM (inactive) and the GI50 (Hs-578T) was 12.9 µM (inactive). The GI50 (SK-MEL-5) was 15.5 µM (inactive), the GI50 (EKVX) was 80.7 µM (inactive) and the GI50 (TK-10) was 18.9 µM (inactive). The GI50 (SF-295) was 35.2 µM (inactive), the GI50 (A549) was 52.4 µM (inactive) and the GI50 (OVCAR-4) was 73.8 µM (inactive). The GI50 (K562) was 27.8 µM (inactive), the GI50 (M14) was 16.9 µM (inactive) and the GI50 (HOP-92) was 19.1 µM (inactive). The GI50 (SF-539) was 24.6 µM (inactive) and the GI50 (OVCAR-3) was 29.8 µM (inactive).

In the case of `COc1ccc2c(=O)c(C)c(-c3ccccc3)oc2c1CN(C)C` [DIMEFLINE HYDROCHLORIDE], the GI50 (UO-31) was 85.7 µM (inactive), the GI50 (A498) was 56.4 µM (inactive) and the GI50 (DMS-114) was > 100 µM (inactive). The GI50 (UACC-257) was > 100 µM (inactive), the GI50 (SF-268) was > 100 µM (inactive) and the GI50 (SW-620) was > 100 µM (inactive). For the same molecule, the GI50 (U-251) was > 100 µM (inactive), the GI50 (NCI-H460) was 82.8 µM (inactive) and the GI50 (SK-MEL-28) was > 100 µM (inactive). The GI50 (KM-20L2) was 58.2 µM (inactive), the GI50 (RXF 393) was 76 µM (inactive) and the GI50 (HCT-15) was greater than 100 µM. For the same molecule, the GI50 (SN12C) was > 100 µM (inactive), the GI50 (SR) was 84.5 µM (inactive) and the GI50 (OVCAR-5) was 47.1 µM (inactive). For the same molecule, the GI50 (LOX IMVI) was 69.3 µM (inactive), the GI50 (SK-MEL-5) was 55 µM (inactive) and the GI50 (EKVX) was > 100 µM (inactive). For the same molecule, the GI50 (TK-10) was 99.8 µM (inactive), the GI50 (K562) was 57.1 µM (inactive) and the GI50 (OVCAR-3) was > 100 µM (inactive).
